Experimental data published in PubChem BioAssay AID493003 (Sanford-Burnham Center for Chemical Genomics, 2010).

Test system: S. cerevisiae tim10-1 mutant growth, luminescence
Experiment: tim10-1 yeast growth inhibition potency – luminescence, S. cerevisiae, uHTS hits, dose response (AID 493003);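 also: yeast growth measured after about 22 hours at 25 °C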

Question: For `CCOC(=O)c1ccc(N2C(=O)C=CC2=O)cc1`, which IC50 is on record?
Answer: Its IC50 is 2.75 µM.

Question: How did the IC50 turn out when `COc1ccc(Cl)cc1NC(=S)NCCc1ccc(F)cc1` was run?
Answer: Its IC50 is 7.09 µM.

Question: Which IC50 does the source give for `Cn1ncc2c(Nc3cccc(Cl)c3)nc(Nc3cccc(Cl)c3)nc21` here?
Answer: Its IC50 is 24.4 µM.

Question: With `CC(C)(C)NC(=O)NC(=O)COC(=O)CCC1CCCCC1` as the compound, how does the IC50 read?
Answer: The IC50 was 69 µM.

Question: Which IC50 does the source give for `CCCc1cc(NCC2CCCO2)n2c(nc3ccccc32)c1C#N` (stereo not given) here?
Answer: The IC50 was 26.7 µM.

Question: Which IC50 does the source give for `COc1ccc(Cl)cc1NC(=O)CN(C)C(=O)C12CC3CC(CC(Cl)(C3)C1)C2` here?
Answer: The IC50 was 9.65 µM.

Question: With `COc1ccc(N2CCN(C(=O)Nc3cccc(C(F)(F)F)c3)CC2)cc1` as the compound, how does the IC50 read?
Answer: The IC50 was 29.1 µM.

Question: Which IC50 does the source give for `Cc1ccccc1/C=C/C(=O)c1ccc([N+](=O)[O-])o1` here?
Answer: Its IC50 is 3.76 µM.

Question: Which IC50 does the source give for `C=CCn1c(N)c(C(=O)Nc2cccc(C)c2)c2nc3ccccc3nc21` here?
Answer: The IC50 was 17 µM.

Question: With `COc1cc(OC)c(C(=O)O/N=C(\N)c2ccc(C)cc2)cc1OC` as the compound, how does the IC50 read?
Answer: The IC50 was 14.5 µM.
